Data: patent publication US20120184624A1, “Treatment of Alzheimer's Disease” (priority 2010, published 2012)
Like-named read-outs stand apart in the source and are kept apart here.

Key:
[1] = system: ribosomal protein S6 (S241/244); assay: Phosphorylation of ribosomal protein S6 (mTORC1 signalling) in primary neurons from wild-type mice; assay type: cell-based, mouse
Description: (§1) Primary cortical neurons were isolated from brain of wt or transgenic (Mapt^tm1(EGFP)klt Tg(MAPT)8cPdav/J; Jackson Laboratory) embryos at day 14.5. Cortices were collected in DMEM (Lonza) and cells were dissociated by incubation with Trypsin/EDTA for 6.5 min at 37° C. Cells were then diluted in neurobasal medium (Gibco-BRL) containing B27 supplement (Gibco BRL). Cells were plated at a density of 4.0×10^5 onto 0.2 mg/ml poly-D-lysin (Sigma) and 2 μg/ml Laminin (Sigma) coated 12 well plates. Neurons were incubated at 37° C. with 8% CO2. One hour after seeding a complete change of medium was performed. Later on, each 96 hours half volumes of the medium were replaced by fresh medium. After 7 days in culture neurons were treated.
(§2) Cells were incubated with the respective substances as follows: Metformin (Sigma) at final concentrations up to 2.5 mM for 1 to >24 hours, okadaic acid (Sigma) at final concentrations from 1 nM to 10 nM for 4 h, Fostricien (Sigma) at final concentration of 1 μM for 4 h and AICAR (cell signalling) at final concentration of 5 mM for 0.5-16 h. For cell treatment without insulin, medium containing B27+insulin supplement was replaced with medium containing B27-supplement without insulin 24 h before treatment. 3 groups of 2 mice were treated with or without 5 mg/l metformin in the drinking water. […]

S6 = assay: Brain S6 phosphorylation in mice fed metformin in the drinking water; assay type: in vivo, mouse; conditions: 5 mg/ml in the drinking water for 16-24 days
Description: as §2, with “treatment.” for “treatment. 3 groups of 2 mice were treated with or without 5 mg/l metformin in the drinking water.”
(§3) Mice were decapitated and brains were rapidly dissected in nitrogen. […]
(§4) Cell pellets were homogenized in Magic-Mix (48% UREA, 15 mM Tris-HCL pH 7.5, 8.7% Glycerin, 1% SDS, 0.004% Bromphenolblue, 143 mM Mercaptoethanol), sonicated and boiled for 5 min at 95° C. […] Antibodies used in this study were purchased from the following companies: Tau-5 (Biosource), anti-human PHF pSer202 (Thermo scientific), Tau pSer356 (Biosource), Tau pSer262 (Biosource), Tau pSer396 (Sigma), Actin (Sigma), ACC (cell signalling), ACC pSer79 (cell signalling), phospho-S6 ribosomal protein pSer241/244 (cell signalling), p70S6 Kinase (cell signalling), p70S6K pThr421/pSer424 (cell signalling), mTOR (cell signalling), AMPK (cell signallling, AMPK pThr172 (cell singnaling), HRP-anti-rabbit (Amersham), HRP-anti-mouse (Dianova). The resulting bands were quantified using Imagequant5.2. […]

MID1-α4-PP2Ac complex = target: T1, MID1-α4-PP2Ac complex (Homo sapiens, UniProt P67775+P78318); assay: Affinity chromatography of the PP2Ac-MID1 B-box-α4 complex; assay type: binding; conditions: metformin at different concentrations in the washing buffer
T1 construct: made in house; host or cells: E. coli BL21
Description: The MID1-B-box-domains, α4, or HIS-tagged PP2Ac were expressed in E. coli BL21. Cells were lysed by French press in buffer A (50 mM Na-phosphate, 300 mM NaCl, 20 mM imidazole, pH 8.0). Lysates were mixed and PP2A-protein complexes were immobilized on Ni-NTA columns (Qiagen) and washed extensively with buffer A containing 10% glycerol and 0.25% Tween20. After washing columns were eluted with buffer A containing different concentrations of metformin. Elutions were analyzed on SDS-Gels followed by Coomassie staining.

[2] = 2 mg/ml in the drinking water fed to mice for 6 days; cited from earlier work
AMPK [3] = assay: Brain AMPK phosphorylation in mice fed metformin in the drinking water; assay type: in vivo, mouse; conditions: 5 mg/ml in the drinking water for 16-24 days
Description: as §2, with “treatment.” for “treatment. 3 groups of 2 mice were treated with or without 5 mg/l metformin in the drinking water.”
as §3, §4

GSK3β = assay: Phosphorylation of GSK3β (pSer9) in primary cortical neurons; assay type: cell-based, mouse; conditions: 2.5 mM metformin over increasing time intervals
Description: as §1
Cell pellets were homogenized in Magic-Mix (48% UREA, 15 mM Tris-HCL pH 7.5, 8.7% Glycerin, 1% SDS, 0.004% Bromphenolblue, 143 mM Mercaptoethanol), sonicated and boiled for 5 min at 95° C. Proteins were resolved on 8 or 10% SDS gels and blotted onto PVDF-membranes (Roche). […]

α4-PP2Ac association = target: T2, α4-PP2Ac association (Homo sapiens, UniProt P67775+P78318); assay: Co-immunoprecipitation of PP2Ac and V5-tagged α4 in HeLa cell lysates; assay type: binding; conditions: 2.5 mM metformin added to lysates of α4-V5 expressing HeLa cells
T2 construct: expressed in transfected cells; host or cells: HeLa

PP2A-holoenzymes = assay: PP2A activity assay (malachite green), PP2A-holoenzymes immunopurified from HeLa cell lysates; assay type: biochemical; conditions: 10 mM metformin, 1 hour
Description: (§5) Either purified PP2Ac (upstate), cell lysates or PP2A-holoenzymes, which were purified by immunoprecipitation using a PP2A-A-subunit antibody (Millipore), were incubated with or without 10 mM metformin or 10 nM okadaic acid for 1 hour. Afterwards PP2A phosphatase activity was determined using a malachite green assay kit (upstate) following the manufacturer's instructions.

primary cortical neurons = assay: TUNEL assay on primary cortical neurons; assay type: cell-based, mouse; conditions: increasing concentrations of metformin, concentrations sufficient to induce tau dephosphorylation
Description: Primary neurons were grown on coverslips with a density of 2×10^5 per 12 well. TUNEL assays were performed using TUNEL enzyme (Roche) and TUNEL label (Roche) following the manufacturer's instructions.

tau [4] = assay type: cell-based, mouse
Description: as §1
(§6) Cells were incubated with the respective substances as follows: Metformin (Sigma) at final concentrations up to 2.5 mM for 1 to >24 hours, okadaic acid (Sigma) at final concentrations from 1 nM to 10 nM for 4 h, Fostricien (Sigma) at final concentration of 1 μM for 4 h and AICAR (cell signalling) at final concentration of 5 mM for 0.5-16 h. For cell treatment without insulin, medium containing B27+insulin supplement was replaced with medium containing B27-supplement without insulin 24 h before treatment. 3 groups of 2 mice were treated with or without 5 mg/l metformin in the drinking water.
(§7) Cell pellets were homogenized in Magic-Mix (48% UREA, 15 mM Tris-HCL pH 7.5, 8.7% Glycerin, 1% SDS, 0.004% Bromphenolblue, 143 mM Mercaptoethanol), sonicated and boiled for 5 min at 95° C. Proteins were resolved on 8 or 10% SDS gels and blotted onto PVDF-membranes (Roche). Antibodies used in this study were purchased from the following companies: Tau-5 (Biosource), anti-human PHF pSer202 (Thermo scientific), Tau pSer356 (Biosource), Tau pSer262 (Biosource), Tau pSer396 (Sigma), Actin (Sigma), ACC (cell signalling), ACC pSer79 (cell signalling), phospho-S6 ribosomal protein pSer241/244 (cell signalling), p70S6 Kinase (cell signalling), p70S6K pThr421/pSer424 (cell signalling), mTOR (cell signalling), AMPK (cell signallling, AMPK pThr172 (cell singnaling), HRP-anti-rabbit (Amersham), HRP-anti-mouse (Dianova). The resulting bands were quantified using Imagequant5.2. Statistical analyses were performed using SigmaStat software package (v 3.0, SPSS, USA). For timecourse or dose-response studies, data were analyses by one-way ANOVA with post hoc Dunnett's or Bonferonni test to accommodate for multiple comparisons. A Student's t-test was used for two-group comparisons, as appropriate.

[5] = dosages applied to patients with Type II Diabetes; cited from earlier work
ribosomal protein S6 = assay: Phosphorylation of S6 in rat hepatoma cell line H4IIE; assay type: cell-based; conditions: 2.5 mM, 16 hours
Description: as §7

p70S6kinase = assay: Phosphorylation of p70S6kinase in primary cortical neurons; assay type: cell-based, mouse; conditions: 2.5 mM metformin over increasing time intervals
Description: as §1, §6, §7

human tau = assay: Tau phosphorylation by Western blot in primary cortical neurons of mice expressing human tau; assay type: cell-based; conditions: increasing concentration of metformin over 4 hours
Description: as §1, §2

PP2A = target: T3, PP2A (Mus musculus, UniProt P63330); assay: PP2A activity in lysates of metformin-treated primary neurons; assay type: cell-based; design: dose or concentration left out as unconfirmed
T3 construct: treated primary neurons with metformin and analyzed PP2A activity in the cell lysates; endogenous in cells; host or cells: primary neurons
Description: Afterwards PP2A phosphatase activity was determined using a malachite green assay kit (upstate) following the manufacturer's instructions.

[6] = target: T4, purified PP2Ac (catalytic subunit of PP2A) (Homo sapiens, UniProt P67775); assay: PP2A activity assay (malachite green), purified PP2Ac; assay type: biochemical; conditions: 10 mM metformin, 1 hour
T4 construct: purchased upstate
Description: as §5

tau [7] = assay: Brain tau phosphorylation in mice fed metformin in the drinking water; assay type: in vivo, mouse; conditions: 5 mg/ml in the drinking water for 16-24 days
Description: as §2, with “treatment.” for “treatment. 3 groups of 2 mice were treated with or without 5 mg/l metformin in the drinking water.”
Mice were decapitated and brains were rapidly dissected in nitrogen. Brains were homogenized in ice-cold lysis buffer containing 10 mmol/l Tris pH 7.5, 150 mM NaCl, 1 mM EDTA, 1 mM EGTA, 1% NP40, protease inhibitors(complete mini, Roche), phosphatase inhibitors (PhosStop, Roche). Lysates were sonicated and centrifuged at 25000 g for 10 min at 4° C.
as §7

AMPK [8] = assay: Phosphorylation of AMPK (pThr 172) in primary cortical neurons; assay type: cell-based, mouse
Description: as §1
as §2, with “treatment.” for “treatment. 3 groups of 2 mice were treated with or without 5 mg/l metformin in the drinking water.”
as §4

ACC = assay: Phosphorylation of the AMPK target ACC (Ser79) in primary cortical neurons; assay type: cell-based, mouse; conditions: 2.5 mM metformin, increasing time intervals
Description: as §1
as §2, with “treatment.” for “treatment. 3 groups of 2 mice were treated with or without 5 mg/l metformin in the drinking water.”
as §4

[9] = 2.5 mM, different time intervals, observed after 2-4 hours

T2 sequence (P78318 whole entry): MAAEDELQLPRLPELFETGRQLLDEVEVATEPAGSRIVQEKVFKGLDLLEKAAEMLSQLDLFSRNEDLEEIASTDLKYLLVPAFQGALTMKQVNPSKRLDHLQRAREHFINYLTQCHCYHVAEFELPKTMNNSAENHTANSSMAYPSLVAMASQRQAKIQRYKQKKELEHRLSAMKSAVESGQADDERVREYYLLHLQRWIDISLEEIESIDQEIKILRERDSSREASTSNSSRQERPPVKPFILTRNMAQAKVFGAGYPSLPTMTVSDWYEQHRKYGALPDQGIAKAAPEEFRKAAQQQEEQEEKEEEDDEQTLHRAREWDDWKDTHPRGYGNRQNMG
T2 sequence (P67775 whole entry): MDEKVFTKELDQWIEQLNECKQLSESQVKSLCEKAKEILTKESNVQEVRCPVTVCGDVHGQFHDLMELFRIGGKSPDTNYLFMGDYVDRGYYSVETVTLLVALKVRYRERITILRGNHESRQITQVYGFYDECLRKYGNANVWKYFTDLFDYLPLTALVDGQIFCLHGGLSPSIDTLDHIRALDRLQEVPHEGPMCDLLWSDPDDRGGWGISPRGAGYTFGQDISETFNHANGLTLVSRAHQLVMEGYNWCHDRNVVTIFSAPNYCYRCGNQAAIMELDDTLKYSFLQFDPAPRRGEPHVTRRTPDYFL
T4 sequence (P67775 whole entry): as above
T1 sequence (P67775 whole entry): as above
T1 sequence (P78318 whole entry): as the sequence (P78318 whole entry) above
T3 sequence (P63330 whole entry): as the sequence (P67775 whole entry) above, with V5L counted along it

CN(C)C(=N)N=C(N)N [metformin, Metformin]
S6 phosphorylation (S241/244) ([1]; 2.5 mM, within 4 h of exposure): significant dephosphorylation
S6 phosphorylation (S241/244) ([1]; increasing concentrations of metformin, 16 hours): dose dependent decrease
brain S6 phosphorylation (S6): significantly de-phosphorylated
elution of MID1 B-boxes and α4 from immobilized HIS-tagged PP2Ac (MID1-α4-PP2Ac complex): could be eluted from the column by adding metformin
level of metformin in the brain [2]: 1000 nM
brain AMPK phosphorylation (pThr 172) (AMPK [3]): no induction
phosphorylation of GSK3β at position Ser 9 (de-phosphorylation activates the enzyme) (GSK3β): reduces the phosphorylation
phosphorylation of GSK3β at position Ser 9 (de-phosphorylation activates the enzyme) (GSK3β; listed as Metformin): increases the activity of GSK3β
amount of PP2Ac associated with α4 (α4-PP2Ac association): dissociation of α4 from PP2Ac
activity of the immunopurified PP2A protein complex (PP2A-holoenzymes): significantly increased
programmed cell death (percentage of apoptotic cells, TUNEL) (primary cortical neurons): did not cause a significant increase
effect on Ser202 phosphorylation of okadaic acid treated cells (tau [4]; 10 nM okadaic acid prior to 2.5 mM metformin, 4 hours): no effect
phosphorylation of Ser202 (tau [4]; 100 nM, longer treatment (>24 hours)): decreased slightly
effect on Ser202 phosphorylation of fostriecin pre-treated cells (tau [4]; 1 μM fostriecin prior to 2.5 mM metformin, 4 hours): did not have any effect
phosphorylation of Ser202 (tau [4]; 10 μM, longer treatment (>24 hours)): significantly reduced
phosphorylation of Ser202 (tau [4]; 2.5 mM metformin alone over 4 hours): decreased significantly
de-phosphorylation of PP2A dependent tau epitopes, dependence on time and dosage (tau [4]; 2.5 mM over time (Ser202, Ser262, Ser356), increasing concentration over 4 hours (Ser202)): increased with time (FIG. 2a) and dosage
phosphorylation of PP2A dependent tau epitope Ser202 (tau [4]; [9]): significant decrease
phosphorylation of PP2A dependent tau epitope Ser262 (tau [4]; [9]): significant decrease
phosphorylation of PP2A dependent tau epitope Ser356 (tau [4]; [9]): significant decrease
phosphorylation of the PP2A insensitive epitope Ser396 (tau [4]; 2.5 mM, increasing time intervals): did not change
dephosphorylation of tau (Ser 202) (tau [4]; 2.5 mM, medium without insulin): strong dephosphorylation effect
peak plasma concentrations [5]: around 12 μM
ability to dephosphorylate S6 (ribosomal protein S6): clearly apparent
phosphorylation status of p70S6kinase (p70S6kinase): Results were confirmed
phosphorylation status of p70S6kinase (p70S6kinase; listed as Metformin): decrease of pS6kinase phosphorylation
phosphorylation of human tau at Ser 202 (human tau): reacted in the same way
phosphatase (PP2A) activity in cell lysates (PP2A): significantly increased phosphatase activity
PP2A activity of purified PP2Ac [6]: no influence
brain de-phosphorylated form of tau at position Ser 202 (tau-1 antibody) (tau [7]): increase
brain tau Ser202 phosphorylation (tau [7]): significant decrease
brain tau Ser262 phosphorylation (tau [7]): significant decrease
brain tau Ser 396 phosphorylation (PP2A independent epitope) (tau [7]): no effect
AMPK phosphorylation (pThr 172) (AMPK [8]; 2.5 mM for 10 hours): does induce AMPK phosphorylation significantly
AMPK phosphorylation (pThr 172) (AMPK [8]; 2.5 mM, shorter intervals of incubation than 10 hours): no significant effect
AMPK phosphorylation (pThr 172) (AMPK [8]; smaller amounts than 2.5 mM for 24 hours): no significant effect
ACC phosphorylation (Ser79) (ACC): neither metformin (FIG. 4a) nor phenformin (FIG. 12) had an effect
